Experimental data: patent publication US20060194828A1, “Vitamin comprising pyroloquinoline quinone and use thereof” (priority 2003, published 2006)
“Also recorded” adds a separate entry of the source.

What was measured:
AASDH activity (mU26) = assay: PQQ-deficient feedstuff given to mice, levels of amino acids and AAA in blood; assay type: in vivo, mouse; settings: PQQ-deficient vs PQQ-added (100 ng PQQ·2Na per gram) feedstuff, ICR female mice, 20 days
Source text: The mice were fed with feedstuff, to which PQQ had not been added (−PQQ) or had been added (+PQQ) and which had chemically been limited, for 20 days. Thereafter, the peripheral blood was collected therefrom, and amino acids contained in the blood were quantified using an amino acid analyzer. The amount of lysine (A) was indicated with a percentage to the total amount of amino acids in blood. The amount of 2-aminoadipic acid was normalized with lysine (B) or glycine (C). The horizontal line represents the mean value of mice in each group.
In order to clarify the role of PQQ influenced on AASDH activity, feedstuff containing no PQQ was given to mice, and such influence was examined. Chemically defined feedstuff (to which no PQQ was added or 100 ng PQQ·2Na was added per gram of feedstuff) was produced in accordance with the publication (Killgore, J. et al. (1989) Science 245, 850-852; Steinberg, F. M. et al. (1994) J. Nutr. 124, 744-753). The thus produced feedstuff was given to virgin female mice (ICR, 4-week-old) for 20 days. The levels of various amino acids and AAA in blood were measured by the above-described method. […] In particular, when normalization was carried out with the amount of lysine, AAA was reduced most clearly (FIG. 6B).

PQQ-deficient mice = settings: skin fragility, skeletal abnormality, decreased immune response, poor reproduction and growth; cited from earlier work

**Q.** With O=C(O)c1cc(C(=O)O)c2c(n1)C(=O)C(=O)c1cc(C(=O)O)[nH]c1-2 [PQQ, pyrroloquinoline quinone] as the molecule, how does the “level of AAA (2-aminoadipic acid) in blood” value (AASDH activity (mU26); normalized with lysine or glycine) read?
**A.** reduced more significantly; also recorded: significantly decreased in PQQ-deficient mice

**Q.** And the “amount of lysine in blood” value (AASDH activity (mU26); percentage to total amino acids in blood)?
**A.** not significantly different; also recorded: not changed

**Q.** What about the “amount of PQQ added to feedstuff that recovered the abnormalities of PQQ-deficient mice” value (PQQ-deficient mice) of the same molecule?
**A.** ≥ 800 ng per gram of feedstuff
